Series [1] in a line: siRNA metabolic stability (FIG. 6 legend). The conditions noted are these: order siRNA-I>siRNA-V>siRNA-VI.
Series [2] relates to CTNNB1. In words: In vivo evaluation in mice: liver mRNA knockdown measurement (TaqMan qPCR). Conditions: for In vivo mRNA knockdown (%): Table 6, mice, sequential, peptide IV 15 min after siRNA IV, TGN-L-siRNA-III 0.5 mg/kg. Set-up: species or system CD-1 mice. How it is done:
(§1) Female CD-1 mice (Charles River) were injected in accordance with either a sequential dosing paradigm or a co-dosing paradigm. In the sequential dosing paradigm, the targeted siRNA (SCE) is dosed at t=0 and the targeted peptide is separately dosed up to 2 hr before the SCE (−2 hr) or up to 24 hr after the SCE (+24 hr). In the co-dosing paradigm, the SCE and peptides are co-formulated and dosed together in the same formulation as a single injection at t=0. The mice were dosed either by intravenous (i.v.) or subcutaneous (s.c.) injection of SCE and peptide. For the i.v. doses, the compounds were injected into the tail vein of the mice. For the s.c. doses, the compounds were injected in the subcutaneous space on the back of the mouse between the shoulder blades. At the indicated harvest times (measured from t=0 when the siRNA was dosed, regardless of when the peptide was dosed), the animals were sacrificed and 3 mm liver punches were collected, preserved in RNAlater (Ambion), and stored at 4° C. Separate 5 mm liver punches were collected, placed in 96-well plates, frozen on dry ice, and stored at −80° C. until use.
The 3 mm liver punches were removed from RNAlater and homogenized in Trizol (Invitrogen) using a bead mill tissue lyser (Qiagen); disruption was performed for two 5-minute cycles at 30 Hz. RNA extraction was performed using 1-bromo-2-chloropropane (Acros Organics) and total RNA was isolated from the aqueous phase using the MagMax RNA isolation method (Ambion). […] TaqMan qPCR analysis was performed with an ABI 7900 Real-Time PCR System using TaqMan Fast Advanced Master Mix (Applied Biosystems). All TaqMan probes and primers for CTNNB1 and PPIB (housekeeping gene) were purchased from Applied Biosystems as pre-validated gene expression assays. Results are calculated by the comparative Ct method, where the difference between the CTNNB1 Ct value and the PPIB Ct value (ΔCt) is calculated and then further normalized relative to the PBS control by taking a second difference (ΔΔCt), as described previously (1).

The nature of series [3]: Lethality observed in the in vivo evaluation in mice. Set-up: species or system CD-1 mice; key to lethal at this dose (asterisk at targeted peptide dose): *: lethal at this dose. The conditions noted are these: Table 6, TGN-L-siRNA-III 0.5 mg/kg IV, peptide 25 mg/kg IV 15 min after siRNA. The procedure:
as §1

Strand notation (5' to 3'): a small letter for the sugar, then the base; units joined by * are phosphorothioate-linked, units joined directly phosphodiester-linked; [ ] holds rarer units or linkages, { } end groups; capitals alone tell only the bases. Where no end group is shown, it is not given here. [ ]: non-standard residue; d: D form. {NH2C6-invAb} = cap: inverted abasic residue carrying an aminohexyl phosphate (attachment handle); [invAb] = inverted abasic unit; m = 2'-O-methyl; f = 2'-fluoro

For the substance “siRNA-I: CTNNB1 ds siRNA, passenger SEQ ID NO 1803, guide SEQ ID NO 1804 (sense {NH2C6-invAb}-mCmUfGmUmUfGfGfAmUmUfGfAmUmUmCfGfAfAfAmU*mU[invAb]; guide mU*fU*mU*fCmGfAmAfUmCfAmAfUmCfCmAfAmCfAmGmU*mU; targeting ligand attached via linker, site not given here)”, the “siRNA stability (metabolic stability)” value in series [1] is “highly stable”. Moreover, in series [2] (FIG. 4, sequential dosing, peptide 15 min after siRNA), the “time course of mRNA KD in DMD format compared to 5-fold higher dose of siRNA-III alone” value was “faster and greater KD”. Besides, in series [2] (FIG. 6, peptide within 2 hr before up to 24 hr after siRNA dose), the “effect of the timing of peptide dose on activity” value was “does not significantly change the activity”.

As for “TGN-S-S-SEQ ID NO: 1248 (D) (C[dF][dL][dE][dE][dL][dW][dE][dL][dL][dE][dH][dL][dL]; not fully specified (residue 1); listed as Homo sapiens)”, the figures for the “In vivo mRNA knockdown (%)” value in series [2] (peptide 2 mg/kg), in series [2] (peptide 10 mg/kg) and in series [2] (peptide 25 mg/kg) were 42%, 74% and 58%, respectively. Further, the “lethal at this dose (asterisk at targeted peptide dose)” value in series [3] was 25*.

Turning to “siRNA-V: CTNNB1 ds siRNA, passenger SEQ ID NO 1803, guide SEQ ID NO 1808 (sense {NH2C6-invAb}-mCmUfGmUmUfGfGfAmUmUfGfAmUmUmCfGfAfAfAmU*mU[invAb]; guide mUfUmUfCmGfAmAfUmCfAmAfUmCfCmAfAmCfAmGmU*mU)”, in series [1], the “siRNA stability (metabolic stability)” value is “moderately stable”. In addition, in series [2] (FIG. 6, peptide dose times within 2 hr (before or after) the siRNA), the “activity (KD)” value was around 25%.

Turning to “siRNA-VI: CTNNB1 ds siRNA, passenger SEQ ID NO 1803, guide SEQ ID NO 1809 (sense {NH2C6-invAb}-mCmUfGmUmUfGfGfAmUmUfGfAmUmUmCfGfAfAfAmU*mU[invAb]; guide fUfUfUmCfGfAfAmUmCfAfAmUmCfCfAfAmCfAfGmU*mU)”, in series [1], the “siRNA stability (metabolic stability)” value is on record as “more unstable”.
